Patent publication US20160214983A1, “3,7-DIAZABICYCLO[3.3.1]NONANE CARBOXAMIDES AS ANTITHROMBOTIC AGENTS” (COUNCIL OF SCIENTIFIC & INDUSTRIAL RESEARCH, priority 2013, published 2016)
Several values for one entry are separate records, joined by “and”; a condition that tells them apart may be missing. Equal values may be shown once.

Assays:
[1] = test system: collagen plus epinephrine induced pulmonary thromboembolism; experiment: Collagen-epinephrine induced pulmonary thromboembolism in mice; format: in vivo
Protocol: To assess the antithrombotic efficacy of compounds, mice were grouped into vehicle, aspirin and compound treated groups, and each group included ten animals. Pulmonary thromboembolism was induced by injecting a mixture of collagen (150 μg/ml) and adrenaline (50 μg/ml) into the tail vein to achieve final doses of collagen (1.5 mg/kg) and adrenaline (0.5 mg/kg) to induce hind limb paralysis or death.^11, 12 Number of test animals killed or paralyzed were evaluated (death/paralysis were employed as endpoint to evaluate antithrombotic agents). The percent protection was calculated by taking the ratio of number of test animals killed or paralyzed to that of total tested animals. Results have been reported as percentage protection, which represents protection against collagen and epinephrine induced thromboembolism and expressed as;
Percent Protection=[1−(Ptest/Pcontrol)]×100
Where, Ptest is the number of animals paralyzed/dead in test compound-treated group, and Pcontrol is the total number of animals paralyzed/dead in vehicle treated group. The percent protection refers to the number of animals in compound treated group that were prevented from paralysis/death.

human platelets = experiment: Collagen induced platelet aggregation in human platelets (in vitro); format: cell-based; conditions: compound concentration 30 μM, n = 3; for inhibition at 30 µM: Homo sapiens, Platelet
[2] = Mus musculus, po, 1 h, read-out: Protection (%)

| SMILES | inhibition in vivo at 170 µM, 170 µmol/kg [1, 2] | Protection (%) ([1]; mice, Aspirin at 170 μm (text: 170 μM/kg)) | inhibition at 30 µM (human platelets) | inhibition in vivo at 30 µM, 30 µmol/kg [1, 2] | Inhibition (%) of collagen induced platelet aggregation (human platelets) |
| --- | --- | --- | --- | --- | --- |
| CC(=O)Oc1ccccc1C(=O)O [Aspirin, reference compound] | 40% | 40 (at 170 μm) % and 40 (at % | – | – | – |
| CC(C)(C)OC(=O)N1CC2CC(C1)CN(C(=O)[C@@H]1CCC(=O)N1Cc1ccccc1)C2 [Compound 1a, 7-(1-Benzyl-5-oxo-pyrrolidine-2-carbonyl)-3,7-diaza-bicyclo[3.3.1]nonane-3-carboxylic acid tert-butyl ester] | – | – | 6 ± 14% | 40% | – |
| CC(C)(C)OC(=O)N1CC2CC(C1)CN(C(=O)[C@@H]1CCC(=O)N1Cc1ccccc1Br)C2 [Compound 1b, 7-[1-(2-Bromo-benzyl)-5-oxo-pyrrolidine-2-carbonyl]-3,7-diaza-bicyclo[3.3.1]nonane-3-carboxylic acid tert-butyl ester] | – | – | – | 50% | Ns |
| O=C([C@@H]1CCC(=O)N1Cc1ccccc1)N1CC2CC(CN(Cc3ccccc3)C2)C1 [Compound 1c, 1-Benzyl-5-(7-benzyl-3,7-diaza-bicyclo[3.3.1]nonane-3-carbonyl)-pyrrolidin-2-one] | – | – | 44 ± 13% | 30% | – |
| Cc1ccc(CN2C(=O)CC[C@H]2C(=O)N2CC3CC(CN(C(=O)OC(C)(C)C)C3)C2)cc1 [Compound 1e, 7-[1-(4-Methyl-benzyl)-5-oxo-pyrrolidine-2-carbonyl]-3,7-diaza-bicyclo[3.3.1]nonane-3-carboxylic acid tert-butyl ester] | – | – | 25 ± 9% | 40% | – |
| Cc1ccc(CN2C(=O)CC[C@H]2C(=O)N2CC3CC(CN(Cc4ccccc4)C3)C2)cc1 [Compound 1f, 5-(7-Benzyl-3,7-diaza-bicyclo[3.3.1]nonane-3-carbonyl)-1-(4-methyl-benzyl)-pyrrolidin-2-one] | – | – | 7 ± 7% | 25% | – |
| O=C([C@@H]1CCC(=O)N1Cc1c(Cl)cccc1Cl)N1CC2CC(CN(Cc3ccccc3)C2)C1 [Compound 1g, (5S)-5-(7-benzyl-3,7-diazabicyclo[3.3.1]nonane-3-carbonyl)-1-(2,6-dichlorobenzyl)pyrrolidin-2-one] | – | – | 57 to 86% | 40% | – |
| O=C([C@@H]1CCC(=O)N1Cc1ccc(Cl)cc1)N1CC2CC(CN(Cc3ccccc3)C2)C1 [Compound 1h] | – | – | 57 to 86% | 30% | – |
| Cc1ccc(S(=O)(=O)N2C(=O)CC[C@H]2C(=O)N2CC3CC(CN(Cc4ccccc4)C3)C2)cc1 [Compound 1i, (5S)-5-(7-benzyl-3,7-diazabicyclo[3.3.1]nonane-3-carbonyl)-1-tosylpyrrolidin-2-one] | – | – | 29 ± 1% | 30% | – |
| CC(C)(C)OC(=O)N1CC2CC(C1)CN(C(=O)[C@@H]1CCC(=O)N1Cc1ccc(C#N)cc1)C2 [Compound 1j, tert-butyl-7-((S)-1-(4-cyanobenzyl)-5-oxopyrrolidine-2-carbonyl)3,7diazabicyclo[3.3.1]nonane-3-carboxylate] | – | – | 11 ± 3% | 55% | – |
| CC(C)(C)OC(=O)N1CC2CC(C1)CN(C(=O)[C@@H]1CCC(=O)N1Cc1ccc(Cl)cc1)C2 [Compound 1k, tert-butyl 7-((S)-1-(4-chlorobenzyl)-5-oxopyrrolidine-2-carbonyl)-3,7-diazabicyclo [3.3.1]nonane-3-carboxylate] | – | – | 6 ± 11% | 30% | – |
| CC(C)(C)OC(=O)N1CC2CC(C1)CN(C(=O)[C@@H]1CCC(=O)N1Cc1c(Cl)cccc1Cl)C2 [Compound 1l, tert-butyl 7-((S)-1-(2,6-dichlorobenzyl)-5-oxopyrrolidine-2-carbonyl)-3,7-diazabicyclo [3.3.1]nonane-3-carboxylate] | – | – | 3 ± 3% | 30% | – |
